In US11446287B2, “Compounds and methods for EP300 or CBP modulation and indications therefor” (Opna Immuno-Oncology SA, priority 2019, dated 2022):

target: T1, Recombinant human EP300 containing the bromodomain (EP300-BD (1040-1161)) (Homo sapiens, UniProt Q09472); assay: EP300 Alphascreen binding assay
T1 construct: Recombinant human EP300 bromodomain (EP300-BD (1040-1161)); made in house; host or cells: E. coli BL21-CodonPlus (DE3), modified pET vector
T1 sequence (Q09472 1040-1161): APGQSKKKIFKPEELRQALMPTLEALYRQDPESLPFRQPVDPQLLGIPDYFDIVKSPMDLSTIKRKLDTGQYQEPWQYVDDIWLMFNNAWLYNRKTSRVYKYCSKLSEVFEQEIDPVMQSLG
Summary of the method: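 Displacement of a biotinylated acetyl-K56 histone H3 peptide from the N-His bromodomain construct (1040-1161) measured by AlphaScreen proximity, beads at 7.5 μg/ml final, read 60 min after addition. Protein, peptide and compound first incubated 1 h at room temperature, pH 7.5 HEPES buffer; IC50 by four-parameter logistic fit.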

With `Cc1noc(C)c1-c1cnc2c(c1)c(-c1cnn(C(C)(C)C(=O)O)c1)cn2C(c1ccccn1)C1CCCC1` (stereo not shown) [P-0035, 2-(4-(1-(cyclopentyl(pyridin-2-yl)methyl)-5-(3,5-dimethylisoxazol-4-yl)-1H-pyrrolo[2,3-b]pyridin-3-yl)-1H-pyrazol-1-yl)-2-methylpropanoic acid] as the molecule, how does the IC50 read?
The IC50 was 0.1 to 1000 nM.

For `Cc1noc(C)c1-c1cnc2c(c1)c(-c1cnn(CC(=O)O)c1)cn2C(c1ccccn1)C1CCCC1` (stereo not shown) [P-0036, 2-(4-(1-(cyclopentyl(pyridin-2-yl)methyl)-5-(3,5-dimethylisoxazol-4-yl)-1H-pyrrolo[2,3-b]pyridin-3-yl)-1H-pyrazol-1-yl)acetic acid], which IC50 is on record?
Its IC50 is 0.1 to 1000 nM.

`Cc1noc(C)c1-c1cnc2c(c1)c(-c1cnn(CC(C)(C)O)c1)cn2C(c1ccccn1)C1CCCC1` (stereo not shown) [P-0037, 1-(4-(1-(cyclopentyl(pyridin-2-yl)methyl)-5-(3,5-dimethylisoxazol-4-yl)-1H-pyrrolo[2,3-b]pyridin-3-yl)-1H-pyrazol-1-yl)-2-methylpropan-2-ol] was tested. Which IC50 did it give?
Its IC50 is 1000 to 8000 nM.

Which IC50 does the source give for `Cc1noc(C)c1-c1cnc2c(c1)c(-c1ccc(C(=O)O)c(Cl)c1)cn2C(c1ccccn1)C1CCCC1` (stereo not shown) [P-0038, 2-chloro-4-(1-(cyclopentyl(pyridin-2-yl)methyl)-5-(3,5-dimethylisoxazol-4-yl)-1H-pyrrolo[2,3-b]pyridin-3-yl)benzoic acid] here?
The IC50 was 0.1 to 1000 nM.

How did the IC50 turn out when `COC(=O)c1cc(-c2cn(C(c3ccccn3)C3CCCC3)c3ncc(-c4c(C)noc4C)cc23)ccn1` (stereo not shown) [P-0040, methyl 4-(1-(cyclopentyl(pyridin-2-yl)methyl)-5-(3,5-dimethylisoxazol-4-yl)-1H-pyrrolo[2,3-b]pyridin-3-yl)picolinate] was run?
Its IC50 is 0.1 to 1000 nM.

How did the IC50 turn out when `Cc1noc(C)c1-c1cnc2c(c1)c(-c1ccnc(C(=O)O)c1)cn2C(C1CC1)C1CC1` [P-0041, 4-(1-(dicyclopropylmethyl)-5-(3,5-dimethylisoxazol-4-yl)-1H-pyrrolo[2,3-b]pyridin-3-yl)picolinic acid] was run?
The IC50 was 0.1 to 1000 nM.

With `Cc1noc(C)c1-c1cnc2c(c1)c(-c1ccnc(C(=O)O)c1)cn2Cc1ccccc1` [P-0042, 4-(1-benzyl-5-(3,5-dimethylisoxazol-4-yl)-1H-pyrrolo[2,3-b]pyridin-3-yl)picolinic acid] as the molecule, how does the IC50 read?
Its IC50 is 0.1 to 1000 nM.

For `Cc1noc(C)c1-c1cnc2c(c1)c(-c1ccnc(C(=O)O)c1)cn2C(c1ccccn1)C1CCC1` (stereo not shown) [P-0043, 4-(1-(cyclobutyl(pyridin-2-yl)methyl)-5-(3,5-dimethylisoxazol-4-yl)-1H-pyrrolo[2,3-b]pyridin-3-yl)picolinic acid], which IC50 is on record?
The IC50 was 0.1 to 1000 nM.

For `Cc1noc(C)c1-c1cnc2c(c1)c(-c1ccnc(C(=O)O)c1)cn2Cc1ccccn1` [P-0044, 4-(5-(3,5-dimethylisoxazol-4-yl)-1-(pyridin-2-ylmethyl)-1H-pyrrolo[2,3-b]pyridin-3-yl)picolinic acid], which IC50 is on record?
Its IC50 is 0.1 to 1000 nM.

`Cc1noc(C)c1-c1cnc2c(c1)c(-c1ccnc(C(=O)O)c1)cn2CC1CC1` [P-0045, 4-(1-(cyclopropylmethyl)-5-(3,5-dimethylisoxazol-4-yl)-1H-pyrrolo[2,3-b]pyridin-3-yl)picolinic acid] was tested. Which IC50 did it give?
The IC50 was 0.1 to 1000 nM.

For `COC(=O)c1cc(-c2cn(C(c3ccccn3)C3CCC3)c3ncc(-c4c(C)noc4C)cc23)ccn1` (stereo not shown) [P-0046, methyl 4-(1-(cyclobutyl(pyridin-2-yl)methyl)-5-(3,5-dimethylisoxazol-4-yl)-1H-pyrrolo[2,3-b]pyridin-3-yl)picolinate], which IC50 is on record?
The IC50 was 0.1 to 1000 nM.

Which IC50 does the source give for `COc1cc(C(=O)O)ccc1-c1cn([C@@H](C)c2ccccn2)c2ncc(-c3c(C)noc3C)cc12` [P-0047, (S)-4-(5-(3,5-dimethylisoxazol-4-yl)-1-(1-(pyridin-2-yl)ethyl)-1H-pyrrolo[2,3-b]pyridin-3-yl)-3-methoxybenzoic acid] here?
Its IC50 is 0.1 to 1000 nM.

How did the IC50 turn out when `Cc1noc(C)c1-c1cnc2c(c1)c(-c1cccc(C(=O)O)c1)cn2Cc1ccccc1` [P-0048, 3-(1-benzyl-5-(3,5-dimethylisoxazol-4-yl)-1H-pyrrolo[2,3-b]pyridin-3-yl)benzoic acid] was run?
Its IC50 is 0.1 to 1000 nM.

With `Cc1noc(C)c1-c1cnc2c(c1)c(-c1cccc(C(=O)O)c1)cn2Cc1ccccn1` [P-0049, 3-(5-(3,5-dimethylisoxazol-4-yl)-1-(pyridin-2-ylmethyl)-1H-pyrrolo[2,3-b]pyridin-3-yl)benzoic acid] as the molecule, how does the IC50 read?
Its IC50 is 0.1 to 1000 nM.

How did the IC50 turn out when `Cc1noc(C)c1-c1cnc2c(c1)c(-c1cccc(C(=O)O)c1)cn2CC1CC1` [P-0050, 3-(1-(cyclopropylmethyl)-5-(3,5-dimethylisoxazol-4-yl)-1H-pyrrolo[2,3-b]pyridin-3-yl)benzoic acid] was run?
The IC50 was 0.1 to 1000 nM.

For `Cc1noc(C)c1-c1cnc2c(c1)c(C#CC(C)(C)C(=O)O)cn2Cc1ccccc1` [P-0051, 4-(1-benzyl-5-(3,5-dimethylisoxazol-4-yl)-1H-pyrrolo[2,3-b]pyridin-3-yl)-2,2-dimethylbut-3-ynoic acid], which IC50 is on record?
The IC50 was 0.1 to 1000 nM.

How did the IC50 turn out when `COC(=O)c1cc(-n2cc(Cc3ccccc3)c3ncc(-c4c(C)noc4C)cc32)ccn1` [P-0052, methyl 4-(3-benzyl-6-(3,5-dimethylisoxazol-4-yl)-1H-pyrrolo[3,2-b]pyridin-1-yl)picolinate] was run?
The IC50 was 0.1 to 1000 nM.

For `Cc1noc(C)c1-c1cnc2c(Cc3ccccc3)cn(-c3ccnc(C(=O)O)c3)c2c1` [P-0053, 4-(3-benzyl-6-(3,5-dimethylisoxazol-4-yl)-1H-pyrrolo[3,2-b]pyridin-1-yl)picolinic acid], which IC50 is on record?
The IC50 was 0.1 to 1000 nM.

Which IC50 does the source give for `Cc1noc(C)c1-c1cnc2c(C(=O)c3ccccc3)cn(-c3ccnc(C(=O)O)c3)c2c1` [P-0054, 4-(3-benzoyl-6-(3,5-dimethylisoxazol-4-yl)-1H-pyrrolo[3,2-b]pyridin-1-yl)picolinic acid] here?
Its IC50 is 0.1 to 1000 nM.

For `Cc1noc(C)c1-c1cnc2c(c1)c(-c1ccc(C(=O)O)cc1OC(F)(F)F)cn2-c1ccc(C2CC2)nc1` [P-0388, 4-(1-(6-cyclopropylpyridin-3-yl)-5-(3,5-dimethylisoxazol-4-yl)-1H-pyrrolo[2,3-b]pyridin-3-yl)-3-(trifluoromethoxy)benzoic acid], which IC50 is on record?
The IC50 was 0.1 to 1000 nM.

With `Cc1noc(C)c1-c1cnc2c(c1)c(-c1ccc(C(=O)O)cc1OC(F)(F)F)cn2C1CCC(C#N)C1` (stereo not shown) [P-0389, 4-(1-(3-cyanocyclopentyl)-5-(3,5-dimethylisoxazol-4-yl)-1H-pyrrolo[2,3-b]pyridin-3-yl)-3-(trifluoromethoxy)benzoic acid] as the molecule, how does the IC50 read?
The IC50 was 0.1 to 1000 nM.

With `Cc1noc(C)c1-c1cnc2c(c1)c(-c1c(Cl)cc(C(=O)O)cc1OCC(F)F)cn2-c1cnc(C2CC2)nc1` [P-0390, 3-chloro-4-(1-(2-cyclopropylpyrimidin-5-yl)-5-(3,5-dimethylisoxazol-4-yl)-1H-pyrrolo[2,3-b]pyridin-3-yl)-5-(2,2-difluoroethoxy)benzoic acid] as the molecule, how does the IC50 read?
The IC50 was 0.1 to 1000 nM.

For `Cc1noc(C)c1-c1cnc2c(c1)c(-c1c(Cl)cc(C(=O)O)cc1OC1CCC1)cn2-c1cnc(C2CC2)nc1` [P-0391, 3-chloro-5-cyclobutoxy-4-(1-(2-cyclopropylpyrimidin-5-yl)-5-(3,5-dimethylisoxazol-4-yl)-1H-pyrrolo[2,3-b]pyridin-3-yl)benzoic acid], which IC50 is on record?
Its IC50 is 0.1 to 1000 nM.

Which IC50 does the source give for `COc1ncc(-n2cc(-c3ccc(C(=O)O)cc3OC(F)(F)F)c3cc(-c4c(C)noc4C)cnc32)cn1` [P-0392, 4-(5-(3,5-dimethylisoxazol-4-yl)-1-(2-methoxypyrimidin-5-yl)-1H-pyrrolo[2,3-b]pyridin-3-yl)-3-(trifluoromethoxy)benzoic acid] here?
Its IC50 is 0.1 to 1000 nM.

How did the IC50 turn out when `Cc1noc(C)c1-c1cnc2c(c1)c(-c1c(Cl)cc(C(=O)O)cc1OC(C)C)cn2-c1cnc(C2CC2)nc1` [P-0393, 3-chloro-4-(1-(2-cyclopropylpyrimidin-5-yl)-5-(3,5-dimethylisoxazol-4-yl)-1H-pyrrolo[2,3-b]pyridin-3-yl)-5-isopropoxybenzoic acid] was run?
Its IC50 is 0.1 to 1000 nM.

`Cc1noc(C)c1-c1cnc2c(c1)c(-c1c(F)cc(C(=O)O)cc1OC1CC1)cn2C(C1CC1)C1CC1` [P-0394, 3-cyclopropoxy-4-(1-(dicyclopropylmethyl)-5-(3,5-dimethylisoxazol-4-yl)-1H-pyrrolo[2,3-b]pyridin-3-yl)-5-fluorobenzoic acid] was tested. Which IC50 did it give?
Its IC50 is 0.1 to 1000 nM.

Which IC50 does the source give for `Cc1noc(C)c1-c1cnc2c(c1)c(-c1c(Cl)cc(C(=O)O)cc1OC(F)(F)F)cn2-c1ncccc1C#N` [P-0395, 3-chloro-4-(1-(3-cyanopyridin-2-yl)-5-(3,5-dimethylisoxazol-4-yl)-1H-pyrrolo[2,3-b]pyridin-3-yl)-5-(trifluoromethoxy)benzoic acid] here?
Its IC50 is 0.1 to 1000 nM.

With `Cc1noc(C)c1-c1cnc2c(c1)c(-c1c(Cl)cc(C(=O)O)cc1OC1CCC1)cn2-c1ncccc1C#N` [P-0396, 3-chloro-4-(1-(3-cyanopyridin-2-yl)-5-(3,5-dimethylisoxazol-4-yl)-1H-pyrrolo[2,3-b]pyridin-3-yl)-5-cyclobutoxybenzoic acid] as the molecule, how does the IC50 read?
Its IC50 is 0.1 to 1000 nM.

`Cc1noc(C)c1-c1cnc2c(c1)c(-c1c(F)cc(C(=O)O)cc1OC1CC1)cn2C1CCOCC1` [P-0397, 3-cyclopropoxy-4-(5-(3,5-dimethylisoxazol-4-yl)-1-(tetrahydro-2H-pyran-4-yl)-1H-pyrrolo[2,3-b]pyridin-3-yl)-5-fluorobenzoic acid] was tested. Which IC50 did it give?
Its IC50 is 0.1 to 1000 nM.

With `CCOc1nc(C(=O)O)c(Cl)cc1-c1cn(C2CCOCC2)c2ncc(-c3c(C)noc3C)cc12` [P-0398, 3-chloro-5-(5-(3,5-dimethylisoxazol-4-yl)-1-(tetrahydro-2H-pyran-4-yl)-1H-pyrrolo[2,3-b]pyridin-3-yl)-6-ethoxypicolinic acid] as the molecule, how does the IC50 read?
The IC50 was 0.1 to 1000 nM.

Which IC50 does the source give for `Cc1noc(C)c1-c1cnc2c(c1)c(-c1ccc(C(=O)O)cc1OC(F)(F)F)cn2-c1ccc(=O)n(C)c1` [P-0399, 4-(5-(3,5-dimethylisoxazol-4-yl)-1-(1-methyl-6-oxo-1,6-dihydropyridin-3-yl)-1H-pyrrolo[2,3-b]pyridin-3-yl)-3-(trifluoromethoxy)benzoic acid] here?
The IC50 was 0.1 to 1000 nM.
